Experimental data: US20260008801A1, “BIO-BASED SURFACTANTS DERIVED FROM CARBOHYDRATES” (COÖPERATIE KONINKLIJKE COSUN U.A., priority 2022, published 2026)

Tests used:
[1] = Foaming abilities, 1% compound solutions shaken by hand; format: physicochemical; set-up: key to FOAM: −: no foam formation; +: low foam formation; ++: moderate foam formation; +++: strong foam formation
Procedure: Foaming abilities were evaluated at room temperature by shaking 1% compound solutions (2 ml) of pH 3, 7, and 12 by hand for 10 s. The pH of each solution was assessed with a pH meter at room temperature. […] The foam heights at the initial time were compared to one another after which the foaming abilities were classified according to no foam formation (−), low foam formation (+), moderate foam formation (++), and strong foam formation (+++).

[2] = Solubility in media other than water (methanol, ethyl acetate, oils, 3:1 EtOH/H2O); format: physicochemical; settings: for Solubility in 3:1 EtOH/H2O: 3:1 ethanol water ratio; for SOLUBILITY (H2O): medium named in the cell instead of water: Table E1, cell names the medium in which the compound is soluble
[3] = Solubility in water (excess of compound in 4 ml demi water); format: physicochemical; settings: for Solubility: Table E5.2, water; for Solubility (%): Table E8
Procedure: Solubility is preferably solubility in aqueous solution, more preferably solubility in water, most preferably solubility in demineralised water. A skilled person knows how to assess such solubility.
Solubility in water was determined by preparing mixtures of an excess of compound dispersed in 4 ml demi water using a vortex at maximum speed for 1 min. […] 1 ml of the mixture was concentrated in vacuo to yield a solid. The mass of the solid was determined in mg to calculate the solubility in percentage by dividing by ten.

[4] = Foaming power and stability, Ultra-Turrax, 0.4% aq. surfactant; format: physicochemical; settings: for Foamability 1 min / Foamability 5 min / Foamability 30 min: Table E8; for Foamability 1 min: after 1 min; for Foamability 5 min: after 5 min; for Foamability 30 min: after 30 min
Procedure: Foaming power was also tested at room temperature with 5 mL of 0.4% aq. surfactant (20 mg) solution in a 50 mL measuring cylinder. After performing the Ultra-Turrax (a registered trademark for a high-performance dispersing instrument) for 20 seconds (8000 rpm), the initial height of the foam was measured for foam height. (volume in mL). Every time step of, 1, 3, 5, 10, 30, 60 minutes was noted. In addition, after 24 hours the stability was checked. Particularly, foaming power and stability of the surfactants were performed using an IKA Ultra-Turrax T25 with an 18 G dispersing element. At room temperature, an aqueous solution of 5 mL 0.4% surfactant in a 50 mL measuring cylinder (2.20 cm diameter) was mixed with the Ultra-Turrax for 20 seconds at 8000 rpm. The foam height (volume in mL) was denoted for 0, 1, 3, 5, 10, 30, 60 min and 24 hours. In addition, after 24 hours the stability was checked.

[5] = Surface tension measurements, Wilhelmy plate (surface tension, CMC); format: physicochemical
Procedure: Surface tension measurements were performed with a Biolin Scientific Sigma701 automatic tension meter equipped with a Wilhelmy plate made of platinum (±0.5 mN/m). […] The number of experimental points is related to the compound's/surfactant's solubility and available quantity. All compound/surfactant solutions were allowed to stand 12 h before being measured. The platinum plate was thoroughly cleaned with demi water and flame-dried before each measurement. The CMC of each compound/surfactant was determined at the minimum of a breakpoint of a conventional plot of surface tension versus compound/surfactant concentration. DCMC was obtained by acquiring the surface tension at the CMC. The pC20 value was determined by taking the minus log of the concentration compound/surfactant at a surface tension of 52 mN/m.

Zein = Zein solubilisation (skin irritation potential); settings: SDS set as 100
Procedure: Zein solubilisation was measured to determine the irritation of the surfactants. Zein is a simple protein found in corn. It is a very simple mimic of skin protein, the more solubilised by your material the harsher the potential to irritate and dry the skin. This method is a quick screen and provides indicative data. The procedure is 1) Weight 2-2.5 ml Eppendorf's on a 4 dp balance. 2) Weight out as accurately as possible 70 mg of Zein. 3) Add to the Eppendorf and reweigh. 4) Make your surfactant dilutions. 5) Add 1 ml of the surfactant dilution to the Eppendorf. 6) Place this on a rotary mixer for 20 mins at 20 rpm at RT. 7) Remove and centrifuge for 4 mins at highest speed available on a micro centrifuge 8) Discard the supernatant making sure as much of it possible is removed. 9) Repeat with water, centrifuge and discard supernatant. 10) With the Eppendorf lid open, place at 50° C. overnight to dry (48 hours required). 11) Re-weigh the next day. 12) Calculate the amount of Zein solubilised. The obtained data allows comparison of surfactants and their harshness to skin. Decisions for in vivo testing can be based on good Zein results.
The skin irritation potential of the surfactants was investigated using zein solubilisation, which is a commonly known assay. Zein is a very simple mimic of skin protein. The more zein is solubilized by the surfactant the harsher the potential to irritate and dry the human skin. […] The surfactants were measured at different pH values, a pH of 4-5, 7 and at their original pH as is.

[6] = Table E3, N-alkylated compounds
[7] = Table E6, N-oxide compounds, in Salt form

Row | solubility in water, in words [3] | FOAM ([1]; Table E3) | solubility in methanol, in words [2] | SOLUBILITY (H2O) [3, 6] | FOAM ([1]; Table E6, in Salt form) | Foamability 1 min [4] | Foamability 5 min [4] | Foamability 30 min [4] | CMC (%) ([5]; Table E6, in Salt form) | SURFACE TENSION ([5]; Table E6, in Salt form) | CMC (%) ([5]; Table E8) | Surface tension (nM/m) ([5]; Table E8) | SOLUBILITY (H2O) [3, 7] | Solubility (%) [3] | Compound | other results
1 | poorly soluble |  |  |  |  |  |  |  |  |  |  |  |  |  | CCCCCCCCNC(=O)[C@H](O)[C@@H](O)[C@@H](O)CO [Compound 03, 1-(N-octyl)-L-arabinonamide] | FOAM ([1]; Table E1): −; Solubility in 3:1 EtOH/H2O [2]: soluble; SOLUBILITY (H2O): medium named in the cell instead of water ([2]; in 3:1 ethanol/water): 3:1 EtOH/H2O &; SOLUBILITY (H2O): medium named in the cell instead of water ([2]; in oil): in oil; solubility in diverse oils, in words [2]: soluble
2 | poorly soluble |  |  |  |  |  |  |  |  |  |  |  |  |  | CCCCCCCCCCNC(=O)[C@H](O)[C@@H](O)[C@@H](O)CO [Compound 04, 1-(N-Decyl)-L-arabinonamide] | FOAM ([1]; Table E1): −; SOLUBILITY (H2O): medium named in the cell instead of water [2]: In oil; solubility in diverse oils, in words [2]: soluble
3 | well soluble | ++ | well soluble | Soluble |  |  |  |  |  |  |  |  |  |  | CCCCCCCCN(C)C(=O)[C@H](O)[C@@H](O)[C@@H](O)CO [Compound 17, N-methyl-N-octyl-L-arabinonamide] | foaming behaviour / foam creation, in words [1]: good foaming behaviour
4 | well soluble | − | well soluble | Soluble |  |  |  |  |  |  |  |  |  |  | CCCCCCN(C)C(=O)[C@H](O)[C@@H](O)[C@@H](O)CO [Compound 18, N-methyl-N-hexyl-L-arabinonamide] | 
5 | well soluble | ++ | well soluble | Soluble |  |  |  |  |  |  |  |  |  |  | CCCCCCCCCCCCN(C)C(=O)[C@H](O)[C@@H](O)[C@@H](O)CO [Compound 19, N-methyl-N-dodecyl-L-arabinonamide] | solubility in ethyl acetate, in words ([2]; ethyl acetate): well soluble
6 | well soluble | ++ | well soluble | Soluble |  |  |  |  |  |  |  |  |  |  | CCCCCCCCN(C)C(=O)[C@H](O)[C@@H](O)[C@@H](O)[C@H](O)C(=O)O [Compound 20] | foaming behaviour / foam creation, in words [1]: good foaming behaviour
7 | well soluble | ++ | well soluble | Soluble |  |  |  |  |  |  |  |  |  |  | CCCCCCCCCCCCN(C)C(=O)[C@H](O)[C@@H](O)[C@@H](O)[C@H](O)C(=O)O [Compound 22] | foaming behaviour / foam creation, in words [1]: good foaming behaviour
8 |  |  |  |  |  |  |  |  |  |  |  |  |  |  | CCCCCCNC[C@H](O)[C@@H](O)[C@@H](O)[C@H](O)C(=O)O [Compound 37, N-hexyl-D-galacturonic acid amine, reference compound] | FOAM ([1]; Table E5, pH not given): −; Solubility in 3:1 EtOH/H2O [2]: (Poorly in 3:1; SOLUBILITY (H2O) ([3]; Table E5): 14%; Solubility [3]: 14%
9 |  |  |  |  | − | 0.5 mL | 0 mL | 0 mL | 1.60% | 49.275 mN/m | 1.30% | 53.59 mN/m | 19% | 19% | CCCCCC[N+](C)([O-])C[C@H](O)[C@@H](O)[C@@H](O)CO (stereo partly drawn) [Compound 38, N-methylhexyl-L-arabinonamine oxide] | 
10 |  |  |  |  | ++ | 2 mL | 2 mL | 0.5 mL | 0.55% | 27.734 mN/m | 0.55% | 27.73 mN/m | 11% | 11% | CCCCCCCC[N+](C)([O-])C[C@H](O)[C@@H](O)[C@@H](O)CO (stereo partly drawn) [Compound 39, N-methyloctyl-L-arabinonamine oxide] | 
11 |  |  |  |  | − | 0.5 mL | 0 mL | 0 mL | 2.58% | 37.727 mN/m | 2.60% | 42.90 mN/m | 17% | 17% | CCCCCC[N+](C)([O-])C[C@H](O)[C@@H](O)[C@@H](O)[C@H](O)C(=O)O (stereo partly drawn) [Compound 41, N-methyl-N-hexyl-D-galacturonic acid amine oxide] | 
12 |  |  |  |  | +++ | 6 mL | 6 mL | 2 mL | 0.65% | 42.89 mN/m | 0.65% | 42.89 mN/m | 10% | 10% | CCCCCCCC[N+](C)([O-])C[C@H](O)[C@@H](O)[C@@H](O)[C@H](O)C(=O)O (stereo partly drawn) [Compound 42, N-methyl-N-octyl-D-galacturonic acid amine oxide] | 
13 |  |  |  |  | +++ | 6 mL | 6 mL | 5 mL | 0.08% | 25.17 mN/m | 0.08% | 25.17 mN/m | 8% | 8% | CCCCCCCCCC[N+](C)([O-])C[C@H](O)[C@@H](O)[C@@H](O)[C@H](O)C(=O)O (stereo partly drawn) [Compound 42b] | 
14 |  |  |  |  | +++ | 5 mL | 4 mL | 4 mL | 0.058% | 25.551 mN/m | 0.058% | 25.55 mN/m | 7% | 7% | CCCCCCCCCCCC[N+](C)([O-])C[C@H](O)[C@@H](O)[C@@H](O)[C@H](O)C(=O)O (stereo partly drawn) [Compound 43, N-methyl-N-dodecyl-D-galacturonic acid amine oxide] | 
15 |  |  |  |  |  | 4 mL | 4 mL | 3 mL |  |  | 0.2% | 33.8 mN/m |  | 28% | sodium laureth sulfate [SLES, reference compound] | FOAM ([1]; Table E7): ++; Foamability (mL) after (min) 1 ([4]; Table E5.2, foam volume after 1 min): 4 mL; Foamability (mL) after (min) 5 ([4]; Table E5.2, foam volume after 5 min): 4 mL; Foamability (mL) after (min) 10 ([4]; Table E5.2, foam volume after 10 min): 3 mL; concentration at which the surface tension is reached [5]: 0.02%; CMC (%) ([5]; Table E5.2): 0.2%; Surface tension (nM/m) ([5]; Table E5.2): 33.8 mN/m; CMC (%) ([5]; Table E7): 0.2%; SURFACE TENSION ([5]; Table E7): 36.5 mN/m; Solubility [3]: 28%; SOLUBILITY (H2O) ([3]; Table E7, commercially available surfactants): Yes; zein score / skin irritation potential value (Zein; pH 7): 49; skin irritation potential value (zein) (Zein; pH11): > 49
